# Test: Stability test of sample solutions under exposure to fluorescent light (HPLC peak area)
# Format: physicochemical
# Conditions: acetonitrile sample solution (HαS 0.26 mg/mL, compound 5 0.49 mg/mL), room temperature, 24 hours under fluorescent light
# Procedure: (HPLC Analysis Conditions)
# Column: TSK-GEL 80TS (φ4.6 mm×150 mm) (Tosoh, Japan); column temperature: 40° C.; flow rate: 1.0 mL/min; measurement wavelength: 200 to 400 nm; mobile phase: Liquid A acetonitrile, Liquid B 0.1% Na2S2O3 aqueous solution (Liquid A: 40%, Liquid B: 60%); and measurement mode: isocratic mode.
# HαS (27.6 mg) and the compound 5 (50.4 mg) were diluted to 100 mL with anhydrous acetonitrile (HPLC grade) to prepare 0.26 mg/mL and 0.49 mg/mL sample solutions. The sample solutions, dispensed in 50 mL aliquots, were allowed to stand at room temperature for 24 hours under exposure to fluorescent light. Quantitative analysis was performed under the above HPLC analysis conditions to measure peak area values of the HαS and the diene iron complex compound (compound 5).
row,Compound,peak area value (content) relative to initial level after light exposure
1,"C/C=C/C=C/C=C\CC/C=C/C(=O)NCC(C)(C)O [HαS, (2E,6Z,8E,10E)-N-(2-hydroxy-2-methylpropyl)dodeca-2,6,8,10-tetraenamide]",approximately 10%
2,"tricarbonyl[(8,9,10,11-η)-(2E,6Z,8E,10E)-N-(2-hydroxy-2-methylpropyl)dodeca-2,6,8,10-tetraenamide]iron [compound 5]",approximately 80%
